{
  "source": "patent US7491819B1",
  "about": "(priority 2004, dated 2009)",
  "data": [
    {"molecular_target": "T1, HIV-integrase (Human immunodeficiency virus type 1 group M subtype B, UniProt P12497)", "T1 construct": "Recombinant integrase (0.26 ng) was incubated with the beads", "assay": "HIV-Integrase Inhibition Activity (SPA bead strand-transfer assay)", "type": "biochemical", "details": "Table 1; read-out: Activity (HIV-integrase inhibition, IC50 class)", "how_it_was_run": "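Strand-transfer read-out: CPM from P33-labelled target DNA (0.1 fmol) joined to bead-bound biotin substrate DNA (5 pmole), with EDTA stop at 10 mM final. Integrase (0.26 ng) prebound to streptavidin SPA beads 90 min, 37° C, and washed before adding inhibitor.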", "units": {"IC50": "nM"}, "values": [
      {"smiles": "Cc1cc(-c2ccccc2CNC(=O)c2nc3n(c(=O)c2O)CCOC3(C)C)cnc1F", "note": "[Example 192, Pyrimido[2,1-c][1,4]oxazine-2-carboxamide, N-[[2-(6-fluoro-5-methyl-3-pyridinyl)phenyl]methyl]-4,6,7,9-tetrahydro-3-hydroxy-9,9-dimethyl-4-oxo-]", "IC50": "2 to 100"},
      {"smiles": "CC1(C)OCCn2c1nc(C(=O)NCc1ccc(C#N)cc1)c(O)c2=O", "note": "[Example 265, Pyrimido[2,1-c][1,4]oxazine-2-carboxamide, N-[(4-cyanophenyl)methyl]-4,6,7,9-tetrahydro-3-hydroxy-9,9-dimethyl-4-oxo-]", "IC50": "2 to 100"},
      {"smiles": "CC1(C)OCCn2c1nc(C(=O)NCc1ccc(F)cc1I)c(O)c2=O", "note": "[Example 73, Pyrimido[2,1-c][1,4]oxazine-2-carboxamide, N-[(4-fluoro-2-iodophenyl)methyl]-4,6,7,9-tetrahydro-3-hydroxy-9,9-dimethyl-4-oxo-]", "IC50": "2 to 100"},
      {"smiles": "CC1(C)OCCn2c1nc(C(=O)NCc1ccccc1-c1ccc3c(c1)OCO3)c(O)c2=O", "note": "[Example 187, Pyrimido[2,1-c][1,4]oxazine-2-carboxamide, N-[[2-(1,3-benzodioxol-5-yl)phenyl]methyl]-4,6,7,9-tetrahydro-3-hydroxy-9,9-dimethyl-4-oxo-]", "IC50": "2 to 100"},
      {"smiles": "CC1(C)OCCn2c1nc(C(=O)NCCCc1ccc(Cl)c(Cl)c1)c(O)c2=O", "note": "[Example 25, Pyrimido[2,1-c][1,4]oxazine-2-carboxamide, N-[3-(3,4-dichlorophenyl)propyl]-4,6,7,9-tetrahydro-3-hydroxy-9,9-dimethyl-4-oxo-]", "IC50": "100 to 1000"},
      {"smiles": "CN(C)C(=O)COc1cc(F)ccc1CNC(=O)c1nc2n(c(=O)c1O)CCOC2(C)C", "note": "[Example 98, Pyrimido[2,1-c][1,4]oxazine-2-carboxamide, N-[[2-[2-(dimethylamino)-2-oxoethoxy]-4-fluorophenyl]methyl]-4,6,7,9-tetrahydro-3-hydroxy-9,9-dimethyl-4-oxo-]", "IC50": "2 to 100"},
      {"smiles": "CC1(C)OCCn2c1nc(C(=O)NCc1ccccc1-c1cccc(NS(C)(=O)=O)c1)c(O)c2=O", "note": "[Example 176, Pyrimido[2,1-c][1,4]oxazine-2-carboxamide, 4,6,7,9-tetrahydro-3-hydroxy-9,9-dimethyl-N-[[3′-[(methylsulfonyl)amino][1,1′-biphenyl]-2-yl]methyl]-4-oxo-]", "IC50": "2 to 100"},
      {"smiles": "CCC1(CC)OCCn2c1nc(C(=O)NCc1ccc(F)cc1S(=O)(=O)N(C)C)c(O)c2=O", "note": "[Example 205, Pyrimido[2,1-c][1,4]oxazine-2-carboxamide, N-[[2-[(dimethylamino)sulfonyl]-4-fluorophenyl]methyl]-9,9-diethyl-4,6,7,9-tetrahydro-3-hydroxy-4-oxo-]", "IC50": "2 to 100"},
      {"smiles": "CC1(C)OCCn2c1nc(C(=O)NCc1ccccc1-c1ccc(F)nc1)c(O)c2=O", "note": "[Example 151]", "IC50": "2 to 100"},
      {"smiles": "Cn1ccc2c(CNC(=O)c3nc4n(c(=O)c3O)CCOC4(C)C)cccc21", "note": "[Example 279, Pyrimido[2,1-c][1,4]oxazine-2-carboxamide, 4,6,7,9-tetrahydro-3-hydroxy-9,9-dimethyl-N-[(1-methyl-1H-indol-4-yl)methyl]-4-oxo-]", "IC50": "2 to 100"},
      {"smiles": "CC1(C)OCCn2c1nc(C(=O)NCc1ccccc1-c1ccncc1)c(O)c2=O", "note": "[Example 190, Pyrimido[2,1-c][1,4]oxazine-2-carboxamide, 4,6,7,9-tetrahydro-3-hydroxy-9,9-dimethyl-4-oxo-N-[[2-(4-pyridinyl)phenyl]methyl]-]", "IC50": "2 to 100"},
      {"smiles": "CC1(C)OCCn2c1nc(C(=O)NCc1ccc(F)cc1Br)c(O)c2=O", "note": "[Example 59, Pyrimido[2,1-c][1,4]oxazine-2-carboxamide, N-[(2-bromo-4-fluorophenyl)methyl]-4,6,7,9-tetrahydro-3-hydroxy-9,9-dimethyl-4-oxo-]", "IC50": "2 to 100"},
      {"smiles": "CC1(C)OCCn2c1nc(C(=O)NCCCc1ccc(F)cc1)c(O)c2=O", "note": "[Example 26, Pyrimido[2,1-c][1,4]oxazine-2-carboxamide, N-[3-(4-fluorophenyl)propyl]-4,6,7,9-tetrahydro-3-hydroxy-9,9-dimethyl-4-oxo-]", "IC50": "2 to 100"},
      {"smiles": "CC1(C)OCCn2c1nc(C(=O)NCc1cccc(Cl)c1Cl)c(O)c2=O", "note": "[Example 227, Pyrimido[2,1-c][1,4]oxazine-2-carboxamide, N-[(2,3-dichlorophenyl)methyl]-4,6,7,9-tetrahydro-3-hydroxy-9,9-dimethyl-4-oxo-]", "IC50": "2 to 100"},
      {"smiles": "CC1(C)OCCn2c1nc(C(=O)NCc1ccc(F)cc1-c1cccnc1)c(O)c2=O", "note": "[Example 75, Pyrimido[2,1-c][1,4]oxazine-2-carboxamide, N-[[4-fluoro-2-(3-pyridinyl)phenyl]methyl]-4,6,7,9-tetrahydro-3-hydroxy-9,9-dimethyl-4-oxo-]", "IC50": "2 to 100"},
      {"smiles": "CCOP(=O)(O)c1cc(F)ccc1CNC(=O)c1nc2n(c(=O)c1O)CCOC2(C)C", "note": "[Example 282, Phosphonic acid, [5-fluoro-2-[[[(4,6,7,9-tetrahydro-3-hydroxy-9,9-dimethyl-4-oxopyrimido[2,1-c][1,4]oxazin-2-yl)carbonyl]amino]methyl]phenyl]-, monoethyl ester]", "IC50": "2 to 100"},
      {"smiles": "CC1(C)OCCn2c1nc(C(=O)NCc1ccccc1-c1cccnc1)c(O)c2=O", "note": "[Example 150, Pyrimido[2,1-c][1,4]oxazine-2-carboxamide, 4,6,7,9-tetrahydro-3-hydroxy-9,9-dimethyl-4-oxo-N-[[2-(3-pyridinyl)phenyl]methyl]-]", "IC50": "2 to 100"},
      {"smiles": "CC1(C)OCCn2c1nc(C(=O)NCc1ccc3c(c1)OCCO3)c(O)c2=O", "note": "[Example 230, Pyrimido[2,1-c][1,4]oxazine-2-carboxamide, N-[(2,3-dihydro-1,4-benzodioxin-6-yl)methyl]-4,6,7,9-tetrahydro-3-hydroxy-9,9-dimethyl-4-oxo-]", "IC50": "2 to 100"},
      {"smiles": "Cn1nnnc1-c1cc(F)ccc1CNC(=O)c1nc2n(c(=O)c1O)CCOC2(C)C", "note": "[Example 107, Pyrimido[2,1-c][1,4]oxazine-2-carboxamide, N-[[4-fluoro-2-(1-methyl-1H-tetrazol-5-yl)phenyl]methyl]-4,6,7,9-tetrahydro-3-hydroxy-9,9-dimethyl-4-oxo-]", "IC50": "2 to 100"},
      {"smiles": "Cc1cc(Cl)ccc1CNC(=O)c1nc2n(c(=O)c1O)CCOC2(C)C", "note": "[Example 272, Pyrimido[2,1-c][1,4]oxazine-2-carboxamide, N-[(4-chloro-2-methylphenyl)methyl]-4,6,7,9-tetrahydro-3-hydroxy-9,9-dimethyl-4-oxo-]", "IC50": "2 to 100"},
      {"smiles": "CC1(C)OCCn2c1nc(C(=O)NCc1ccccc1N1CCC1=O)c(O)c2=O", "note": "[Example 123, Pyrimido[2,1-c][1, 4]oxazine-2-carboxamide, 4,6,7,9-tetrahydro-3-hydroxy-9,9-dimethyl-4-oxo-N-[[2-(2-oxo-1-azetidinyl)phenyl]methyl]-]", "IC50": "2 to 100"},
      {"smiles": "Cc1cccc(-c2ccccc2CNC(=O)c2nc3n(c(=O)c2O)CCOC3(C)C)c1", "note": "[Example 163, Pyrimido[2,1-c][1,4]oxazine-2-carboxamide, 4,6,7,9-tetrahydro-3-hydroxy-9,9-dimethyl-N-[(3′-methyl[1,1′-biphenyl]-2-yl)methyl]-4-oxo-]", "IC50": "2 to 100"},
      {"smiles": "CC1(C)OCCn2c1nc(C(=O)NCc1ccc(F)cc1F)c(O)c2=O", "note": "[Example 35, Pyrimido[2,1-c][1,4]oxazine-2-carboxamide, N-[(2,4-difluorophenyl)methyl]-4,6,7,9-tetrahydro-3-hydroxy-9,9-dimethyl-4-oxo-]", "IC50": "2 to 100"},
      {"smiles": "CCC1(CC)OCCn2c1nc(C(=O)NCc1ccc(F)cc1-n1cncn1)c(O)c2=O", "note": "[Example 119, Pyrimido[2,1-c][1,4]oxazine-2-carboxamide, 9,9-diethyl-N-[[4-fluoro-2-(1H-1,2,4-triazol-1-yl)phenyl]methyl]-4,6,7,9-tetrahydro-3-hydroxy-4-oxo-]", "IC50": "2 to 100"},
      {"smiles": "Cc1ccc(F)c(CNC(=O)c2nc3n(c(=O)c2O)CCOC3(C)C)c1Cl", "note": "[Example 278, Pyrimido[2,1-c][1,4]oxazine-2-carboxamide, N-[(2-chloro-6-fluoro-3-methylphenyl)methyl]-4,6,7,9-tetrahydro-3-hydroxy-9,9-dimethyl-4-oxo-]", "IC50": "2 to 100"},
      {"smiles": "CNC(=O)c1cc(F)ccc1CNC(=O)c1nc2n(c(=O)c1O)CCCOC2(C)C", "note": "[Example 118, 6H-Pyrimido[2,1-c][1,4]oxazepine-2-carboxamide, N-[[4-fluoro-2-[(methylamino)carbonyl]phenyl]methyl]-4,7,8,10-tetrahydro-3-hydroxy-10,10-dimethyl-4-oxo-]", "IC50": "2 to 100"},
      {"smiles": "COc1ccc(CNC(=O)c2nc3n(c(=O)c2O)CCOC3(C)C)cc1", "note": "[Example 244, Pyrimido[2,1-c][1,4]oxazine-2-carboxamide, 4,6,7,9-tetrahydro-3-hydroxy-N-[(4-methoxyphenyl)methyl]-9,9-dimethyl-4-oxo-]", "IC50": "2 to 100"},
      {"smiles": "C[S+]([O-])c1cc(F)ccc1CNC(=O)c1nc2n(c(=O)c1O)CCOC2(C)C", "note": "(stereo not shown) [Example 102, Pyrimido[2,1-c][1,4]oxazine-2-carboxamide, N-[[4-fluoro-2-(methylsulfinyl)phenyl]methyl]-4,6,7,9-tetrahydro-3-hydroxy-9,9-dimethyl-4-oxo]", "IC50": "2 to 100"},
      {"smiles": "CC1(C)OCCn2c1nc(C(=O)NCc1ccc(F)cc1N1CCCC1=O)c(O)c2=O", "note": "[Example 124, Pyrimido[2,1-c][1,4]oxazine-2-carboxamide, N-[[4-fluoro-2-(2-oxo-1-pyrrolidinyl)phenyl]methyl]-4,6,7,9-tetrahydro-3-hydroxy-9,9-dimethyl-4-oxo]", "IC50": "2 to 100"},
      {"smiles": "CC1(C)OCCn2c1nc(C(=O)NCc1ccccc1-c1ccc3[nH]ccc3c1)c(O)c2=O", "note": "[Example 177, Pyrimido[2,1-c][1,4]oxazine-2-carboxamide, 4,6,7,9-tetrahydro-3-hydroxy-N-[[2-(1H-indol-5-yl)phenyl]methyl]-9,9-dimethyl-4-oxo-]", "IC50": "2 to 100"},
      {"smiles": "CC1(C)OCCn2c1nc(C(=O)NCc1ccccc1-c1cccc(C#N)c1)c(O)c2=O", "note": "[Example 167, Pyrimido[2,1-c][1,4]oxazine-2-carboxamide, N-[(3′-cyano[1,1′-biphenyl]-2-yl)methyl]-4,6,7,9-tetrahydro-3-hydroxy-9,9-dimethyl-4-oxo-]", "IC50": "2 to 100"}
    ]}
  ]
}
